According to ChEMBL document CHEMBL1126612, “Synthesis and pharmacological evaluation of hexahydrofluorenamines as noncompetitive antagonists at the N-methyl-D-aspartate receptor” (J Med Chem, 1993):

Legend:
Glutamate NMDA receptor [1] = experiment: Evaluated for their affinity at the PCP site for displacement of [3H]TCP in rat brain homogenates; format: tissue-based
[2] = Partition coefficient determined using standard shake flask method at pH 7.4.; format: physicochemical; conditions: octanol/water
[3] = target: Glutamate NMDA receptor (Rattus norvegicus) (UniProt P35439+Q00959+Q00960+Q00961+Q62645+Q8VHN2+Q9R1M7); experiment: (§1) Percent inhibition at the PCP site for displacement of [3H]TCP in rat brain homogenates at […]; format: tissue-based
Mus musculus = experiment: Compound was evaluated for in vivo activity assessed by prevention of NMDA-induced lethality in mice (N= 10 animals); format: functional
Rattus norvegicus [4] = organism: Rattus norvegicus; experiment: Compound was evaluated for the inhibition of glutamate-stimulated calcium influx (GSCI); format: functional
Rattus norvegicus [5] = organism: Rattus norvegicus; experiment: Compound was evaluated for the inhibition of glutamate-stimulated calcium influx (GSCI); (N=1); format: functional
Glutamate NMDA receptor [6] = experiment: as §1; format: tissue-based

SMILES	IC50 (Glutamate NMDA receptor [1]) [µM]	logD [2]	inhibition [3] [%]	ED50 (Mus musculus) [mg/kg]	other results
CNC12CCCC1Cc1ccccc12 (centres undefined)	0.35	–	–	–	–
NC12CCCCC1c1ccccc1C2 (centres undefined)	–	0.3	0	–	–
CC1CCCC2Cc3ccccc3C12N (centres undefined)	0.159	–	–	–	–
CC[C@]1(c2ccccc2)OC[C@H]([C@@H]2CCCCN2)O1 [ETOXADROL]	0.107	–	–	–	–
CNC[C@@H]1CC[C@@]2(NC)c3ccccc3C[C@H]2C1	–	-2.65	0	–	–
c1ccc(CNC23CCCC2Cc2ccccc23)cc1 (centres undefined)	–	–	4	–	–
CCNC12CCCCC1Cc1c(C)cccc12 (centres undefined)	0.323	–	–	–	–
CNCC12CCCCC1c1ccccc1C2 (centres undefined)	–	–	0	–	–
CN[C@]12CCCC[C@H]1Cc1ccccc12	0.0099	0.33	–	0.1	IC50 (Rattus norvegicus [4]): 0.12 µM
c1ccc(CNC23CCCCC2Cc2ccsc23)cc1 (centres undefined)	–	–	10	–	–
NC12CCCCCC1Cc1ccccc12 (centres undefined)	0.304	–	–	–	–
c1ccc(C2(N3CCCCC3)CCCCC2)cc1 [PHENCYCLIDINE]	0.0365	3.63	–	0.55	IC50 (Rattus norvegicus [4]): 0.2 µM
CNC12CCCCC1Sc1ccccc12 (centres undefined)	0.0113	–	–	0.41	IC50 (Rattus norvegicus [5]): 0.21 µM
N[C@]12CCCC[C@H]1Cc1ccccc12	0.0134	–	–	0.61	IC50 (Rattus norvegicus [4]): 0.51 µM
CNC12CCCCC1Cc1cc(OC)ccc12 (centres undefined)	–	0.21	11	–	–
CNC12CCC(CO)CC1Cc1ccccc12 (centres undefined)	3.94	0.17	–	–	–
CCN[C@]12CCCC[C@H]1Cc1ccccc12	0.0552	–	–	0.2	IC50 (Rattus norvegicus [5]): 0.061 µM
CN[C@@]12CCCC[C@@H]1Cc1ccccc12.CN[C@]12CCCC[C@H]1Cc1ccccc12	0.03	0.54	–	0.58	IC50 (Rattus norvegicus [4]): 0.1 µM

SMILES	IC50 (Glutamate NMDA receptor [1]) [µM]	logD [2]	inhibition [3] [%]	ED50 (Mus musculus) [mg/kg]	other results
CCNC12CCCCC1Oc1ccccc12 (centres undefined)	0.141	–	–	1.5	IC50 (Rattus norvegicus [5]): 1.8 µM
C[C@]12N[C@H](Cc3ccccc31)c1ccccc12 [DIZOCILPINE]	–	2.1	–	0.22	IC50 (Rattus norvegicus [4]): 0.054 µM
CNC12CCCCC1Cc1ccc(O)cc12 (centres undefined)	0.0165	–	–	0.99	IC50 (Rattus norvegicus [5]): 0.14 µM
CN[C@@]12CC[C@@H](CN)C[C@@H]1Cc1ccccc12	0.00184	-1.42	–	–	IC50 (Rattus norvegicus [5]): 765 µM
c1ccc(CNC23CCCCCC2Cc2ccccc23)cc1 (centres undefined)	–	–	6	–	–
CNC12CCCCCC1Cc1ccccc12 (centres undefined)	0.113	0.66	–	–	IC50 (Rattus norvegicus [5]): 1.2 µM
CNC12CC=CCC1c1ccccc1C2 (centres undefined)	–	0.04	0	–	–
NC12CCCC1Cc1ccccc12 (centres undefined)	–	-0.28	–	–	IC50 (Glutamate NMDA receptor [6]): 0.005 µM
CNC12CCCCC1Cc1ccsc12 (centres undefined)	0.066	–	–	1.1	–
NC12CCC(CO)CC1Cc1ccccc12 (centres undefined)	0.253	0.86	–	–	–
CNC12CCCCC1c1ccccc1C2 (centres undefined)	–	0.62	0	–	–
C=C1c2ccccc2C2(N)CCCCC12 (centres undefined)	–	–	4	–	–
C=C1c2ccccc2C2(NC)CCCCC12 (centres undefined)	0.528	0.76	–	–	–
NCC12CCCCC1c1ccccc1C2 (centres undefined)	–	–	1	–	–
CNC12CCC(C)CC1Cc1ccccc12 (centres undefined)	0.095	–	–	–	–
CNC12c3ccccc3CC1CCCC2C (centres undefined)	0.079	–	–	0.8	IC50 (Rattus norvegicus [5]): 0.39 µM
CNC12CCCCC1Cc1ccc(OC)cc12 (centres undefined)	0.022	0.65	–	0.51	IC50 (Rattus norvegicus [5]): 0.16 µM
CN[C@@]12CCCC[C@@H]1Cc1ccccc12	0.107	0.43	–	10	IC50 (Rattus norvegicus [4]): 2.55 µM
